Reference: PubChem BioAssay AID220 (DTP/NCI, 2004)
“And” between values parts separate entries of the source, which are not always exact repeats. Equal values may be shown once. Results filed as inconclusive are left out.

Tested on: CD8F1 mice, subcutaneous mammary adenocarcinoma, T/C%
Assay: NCI In Vivo Anticancer Drug Screen. Data for tumor model Mammary Adenocarcinoma CD8F1 (subcutaneous) in CD8F1
Details: higher = larger tumour
Procedure, shortened: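 Mice carrying transplanted tumors received test compound, and survival or tumor size was recorded. Each value is the treated-group measurement divided by the corresponding measurement in vehicle-dosed controls.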

[1] = endpoint: median tumor weight (est.), dose: 25.0 mg/kg/injection, schedule: Q07DX005 (ip), vehicle: saline with Tween-80
[2] = endpoint: median tumor weight (est.), dose: 50.0 mg/kg/injection, schedule: Q07DX005 (ip), vehicle: saline with Tween-80
[3] = endpoint: median tumor weight (est.), dose: 100.0 mg/kg/injection, schedule: Q07DX005 (ip), vehicle: saline with Tween-80
[4] = endpoint: median tumor weight (est.), dose: 200.0 mg/kg/injection, schedule: Q07DX005 (ip), vehicle: saline with Tween-80
[5] = endpoint: median tumor weight (est.), dose: 400.0 mg/kg/injection, schedule: Q07DX005 (ip), vehicle: saline with Tween-80

CC[C@]1(O)C[C@H]2CN(CCc3c([nH]c4ccccc34)[C@@](C(=O)OC)(c3cc4c(cc3OC)N(C=O)[C@H]3[C@@](O)(C(=O)OC)[C@H](OC(C)=O)[C@]5(CC)C=CCN6CC[C@]43[C@@H]65)C2)C1
T/C (endpoint: mean tumor weight, dose: 0.07 mg/kg/injection, schedule: Q01DX009 (ip), vehicle: saline): 180 % of control | T/C (endpoint: mean tumor weight, dose: 0.15 mg/kg/injection, schedule: Q01DX009 (ip), vehicle: saline): 123 % of control | T/C (endpoint: mean tumor weight, dose: 0.3 mg/kg/injection, schedule: Q01DX009 (ip), vehicle: saline): 54 % of control | T/C (endpoint: mean tumor weight, dose: 0.5 mg/kg/injection, schedule: Q07DX006 (ip), vehicle: saline): 49 % of control | T/C (endpoint: mean tumor weight, dose: 1.0 mg/kg/injection, schedule: Q07DX006 (ip), vehicle: saline): 71 % of control | T/C (endpoint: mean tumor weight, dose: 2.0 mg/kg/injection, schedule: Q07DX006 (ip), vehicle: saline): 12 % of control | T/C (endpoint: median tumor weight (est.), dose: 0.13 mg/kg/injection, schedule: Q01DX005 (ip), vehicle: saline): 56 % of control | T/C (endpoint: median tumor weight (est.), dose: 0.19 mg/kg/injection, schedule: Q01DX005 (ip), vehicle: saline): 73 % of control | T/C (endpoint: median tumor weight (est.), dose: 0.25 mg/kg/injection, schedule: Q07DX005 (ip), vehicle: saline): 64 % of control and 73 % of control and 84 % of control | T/C (endpoint: median tumor weight (est.), dose: 0.28 mg/kg/injection, schedule: Q01DX005 (ip), vehicle: saline): 105 % of control | T/C (endpoint: median tumor weight (est.), dose: 0.5 mg/kg/injection, schedule: Q07DX005 (ip), vehicle: saline): 39 % of control and 43 % of control and 45 % of control | T/C (endpoint: median tumor weight (est.), dose: 0.95 mg/kg/injection, schedule: Q07DX005 (ip), vehicle: saline): 29 % of control | T/C (endpoint: median tumor weight (est.), dose: 1.0 mg/kg/injection, schedule: Q07DX005 (ip), vehicle: saline): 6 % of control | T/C (endpoint: median tumor weight (est.), dose: 1.4 mg/kg/injection, schedule: Q04DX005 (ip), vehicle: saline): 6 % of control | T/C (endpoint: median tumor weight (est.), dose: 1.4 mg/kg/injection, schedule: Q07DX005 (ip), vehicle: saline): 8 % of control | T/C (endpoint: median tumor weight (est.), dose: 2.0 mg/kg/injection, schedule: Q07DX005 (ip), vehicle: saline): 1 % of control

CC(C)CCC(=O)c1ccoc1
T/C (endpoint: median tumor weight change, dose: 0.31 mg/kg/injection, schedule: Q03HX003 (ip), vehicle: saline with Tween-80): 90 % of control | T/C (endpoint: median tumor weight change, dose: 0.62 mg/kg/injection, schedule: Q03HX003 (ip), vehicle: saline with Tween-80): 102 % of control | T/C (endpoint: median tumor weight change, dose: 1.25 mg/kg/injection, schedule: Q03HX003 (ip), vehicle: saline with Tween-80): 103 % of control

NC(=S)c1cn(C2OC(CO)C(O)C2O)c2ncnc(N)c12 (centres undefined)
T/C (endpoint: median tumor weight change, dose: 3.12 mg/kg/injection, schedule: Q01DX001 (ip), vehicle: suspension in saline): 96 % of control | T/C (endpoint: median tumor weight change, dose: 6.25 mg/kg/injection, schedule: Q01DX001 (ip), vehicle: suspension in saline): 68 % of control | T/C (endpoint: median tumor weight change, dose: 12.5 mg/kg/injection, schedule: Q01DX001 (ip), vehicle: suspension in saline): 76 % of control

COC(=O)[C@@]12OC[C@]34[C@H]([C@@H](O)[C@@H]1O)[C@@]1(C)CC(=O)C(O)=C(C)[C@@H]1C[C@H]3OC(=O)[C@H](OC(=O)/C=C(\C)C(C)C)[C@@H]24
T/C (endpoint: median tumor weight (est.), dose: 0.25 mg/kg/injection, schedule: Q07DX005 (ip), vehicle: saline + alcohol): 99 % of control | T/C (endpoint: median tumor weight (est.), dose: 0.5 mg/kg/injection, schedule: Q07DX005 (ip), vehicle: saline + alcohol): 92 % of control | T/C (endpoint: median tumor weight (est.), dose: 1.0 mg/kg/injection, schedule: Q07DX005 (ip), vehicle: saline + alcohol): 104 % of control | T/C (endpoint: median tumor weight change, dose: 1.0 mg/kg/injection, schedule: Q01DX001 (ip), vehicle: saline + alcohol): 85 % of control | T/C (endpoint: median tumor weight change, dose: 2.0 mg/kg/injection, schedule: Q01DX001 (ip), vehicle: saline + alcohol): 81 % of control | T/C (endpoint: median tumor weight change, dose: 4.0 mg/kg/injection, schedule: Q01DX001 (ip), vehicle: saline + alcohol): 93 % of control

CCOC(=O)[C@]1(Br)CC[C@@]1(Br)C(=O)OCC
T/C (endpoint: median tumor weight (est.), dose: 12.5 mg/kg/injection, schedule: Q07DX005 (ip), vehicle: saline with Tween-80): 117 % of control | T/C [1]: 102 % of control | T/C [2]: 95 % of control | T/C [3]: 112 % of control | T/C [4]: 95 % of control | T/C [5]: 105 % of control

NCCCNCCSP(=O)(O)O
T/C [1]: 39 % of control | T/C [2]: 33 % of control | T/C [3]: 50 % of control | T/C [4]: 28 % of control | T/C [5]: 42 % of control
